# Source: patent US11613729B2, “Cortical spheroids and methods of making the same” (The Florida State University Research Foundation, Inc., priority 2019, dated 2023)
# Assays:
# hybrid spheroids [1] = experiment: MTT assay of hybrid spheroids; type: cell-based, human
# Description: First, an MTT assay was conducted. The spheroids of Examples 2 and 3 were incubated with 5 mg/mL 3-(4,5-Dimethylthiazol-2-yl)-2,5-diphenyltetrazolium bromide (MTT, Sigma) solution at day 7 after three cell types were co-cultured unless otherwise noted. The absorbance of the samples was measured at 500 nm using a microplate reader (Biorad, Richmond, Calif.).
# The hMSCs were labeled with CellTracker Green.
# iNPC-iEC-MSC spheroids = experiment: Spheroid fusion / aggregation kinetics (squared aspect ratio); type: cell-based, human
# Description: To form hHA hydrogels, 1% (w/v) HA from Sigma Aldrich solution was reacted with a 5-fold molar excess amount of methacrylic anhydride (MA) from Sigma Aldrich for 15 h in the dark at 4° C. The final product was collected by precipitating the solution in 5-fold volume of ethanol twice, and was then purified by dialysis using a membrane (3.5 kDa Mw cut-off, Thermofisher) to remove unreacted reagents. The purified MA-HA was filtered, lyophilized, and stored at −20° C. until further use. Next, ^1H-NMR spectroscopy (a Bruker 500M spectrometer at […]) was used to analyze and the degree of methacrylation. For culture experiments, day 14 iEC spheroids were transferred to the wells containing day 14 iNPC spheroids, at the same time hMSCs were added into the wells at different ratios (iNPC:iEC:MSC=4:2:0, 3:2:1 2:2:2, and 1:2:3). […] The morphology of hybrid spheroids were captured over 7 days by a phase contrast microscope.
# Images of spheroid fusion were captured over time by a phase contrast microscope. The captured images were converted to binary images using ImageJ software (rsb.info.nih.gov/ij) and analyzed with the “particle analysis tool”. Through particle analysis, the squared aspect ratio of contact length between the two aggregates over maximum diameter (FIG. 6A) was determined to indicate the aggregate fusion process. The inter-sphere angle was measured as the intersecting angle between the tangent lines of two contacted spheroids to the touch point. For some experiments, the number of branching points and the total tube length in the area were evaluated.
# hybrid spheroids [2] = experiment: Neurite outgrowth of replated hybrid spheroids; type: cell-based, human; conditions: ROCKi Y27632 10 μM, day 21 spheroids replated three days
# Description: Effects of ROCKi Y27632, Geltrex, and HA on neurogenesis of hybrid spheroids were depicted (not shown). Day 21 hybrid spheroids embedded in Geltrex (5%) or treated with ROCKi Y27632 (10 μM) were replated on 1% Geltrex-coated surface for three days. Neurite and axonal extension indicated by β-tubulin III expression was shown. Phase contrast images of axon outgrowth of day 21 spheroids were produced (not shown). Fluorescent images for day 39 spheroids: neuron marker β-tubulin III, motor neuron progenitor marker Islet-1, GABAergic neuron marker (GABA), glutamatergic neuron marker (Glutamate), cortical neuron marker (TBR1), pre-synaptic marker synapsin I and post-synaptic marker PSD95 were produced (not shown).
# Description for hMSCs in fused spheroids: The hMSCs were labeled with CellTracker Green. The hybrid (iNPC-iEC-MSC) spheroids were cultured in neural differentiation media (control) or media containing the CXCR4 inhibitor AMD3100 (100 nM, Sigma) for additional 10 days [53]. The fusion kinetics and cell localization were captured over time.
SMILES,area occupied by hMSCs (hMSCs in fused spheroids; AMD3100 100 nM vs control groups),"aspect ratio of hMSCs (area occupied by hMSCs to total area of fused spheroids) (hMSCs in fused spheroids; AMD3100 100 nM, day 4 to day 8)","MTT activity (cell proliferation) (hybrid spheroids [1]; AMD3100 100 nM, day 24 hybrid spheroids)","aspect ratio (iNPC-iEC-MSC spheroids; 20 μM or 40 μM ROCKi, plateau over 7 days)",tendency of two spheroids to fuse (iNPC-iEC-MSC spheroids; high concentration (20 μM or 40 μM)),integration of MSCs into iNPC-iEC spheroids (iNPC-iEC-MSC spheroids; low concentration of ROCKi (10 μM)),neurite outgrowth (hybrid spheroids [2]),"MTT activity (hybrid spheroids [1]; 20 μM ROCKi Y27632, 7 days of tri-culture, vs no treatment)"
c1cc(CN2CCCNCCNCCCNCC2)ccc1CN1CCCNCCNCCCNCC1 [AMD3100],smaller than the control groups,decreased from day 4 to day 8,little influence on cell proliferation,–,–,–,–,–
C[C@@H](N)[C@H]1CC[C@H](C(=O)Nc2ccncc2)CC1 [Y27632],–,–,–,0.5-0.7,disrupted,did not impact,enhanced,increased MTT activity
